Data on two compounds can be found in ChEMBL document CHEMBL1150575, “Microbial transformation of hypoestenone” (2001).

Converted amounts (≈) assume the structure as drawn.

Holding throughout (type): functional
For experiment [1], the system named is Cryptococcus neoformans. As to the kind of experiment: Antimicrobial activity against Cryptococcus neoformans by microtiter-plate assay.
Experiment [2] relates to Pseudomonas aeruginosa. As to the kind of experiment: Antimicrobial activity against Pseudomonas aeruginosa by microtiter-plate assay.
Experiment [3] relates to Plasmodium falciparum. Description: Antiparasitic activity against Plasmodium falciparum W2.

Regarding `CC1=C2C[C@]3(C)C(=O)C[C@@H](C(C)C)[C@H]3C[C@H]3O[C@@]3(C)[C@@H]2CC1=O`, in experiment [1], it took 50 µg/mL (≈ 158 µM) to inhibit growth (MIC).
With `CC1=C2C[C@]3(C)C(=O)C[C@@H](C(C)C)[C@H]3C/C=C(/C)[C@@H]2CC1=O` [HYPOESTENONE], the figures for the MIC in experiment [1], in experiment [2] and in experiment [3] were 20 µg/mL (≈ 66.6 µM), 45 µg/mL (≈ 150 µM) and 2.8 µg/mL (≈ 9.32 µM), respectively.
